System: colon explants
Format: cell-based, mouse
Procedure: (F) FACS quantification of propidium iodide positive cells obtained from colon explants incubated for 10 hrs with PBS or taurine.
(F) FACS quantification of propidium iodide positive cells obtained from colon explants incubated for 10 hrs with either PBS, spermine or histamine.

| SMILES | cell death |
| --- | --- |
| NCCc1c[nH]cn1 [histamine] | no change |
| NCCCNCCCCNCCCN [spermine] | no change |
